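Where inhibition never reached the appropriate level, the endpoint shown equals the highest concentration tested. Otherwise, values were interpolated linearly from a five-concentration, 48-hour dose response in 96-well plates. At the GI50, growth is halved.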 Calls of active or inactive are those of the source. Rule as the data show it: active = GI50 up to about 1.1 µM and inactive = higher.
What was measured:
Experiment in all cases: NCI-60 cell line screen, 48 h
786-0 = test system: 786-0
A498 = test system: A498
A549 = test system: A549
ACHN = test system: ACHN
BT-549 = test system: BT-549
CAKI-1 = test system: CAKI-1
CCRF-CEM = test system: CCRF-CEM
COLO 205 = test system: COLO 205
DU-145 = test system: DU-145
EKVX = test system: EKVX
HCC 2998 = test system: HCC 2998
HCT-116 = test system: HCT-116
HCT-15 = test system: HCT-15
HL-60 = test system: HL-60
HOP-62 = test system: HOP-62
HOP-92 = test system: HOP-92
HT-29 = test system: HT-29
Hs-578T = test system: Hs-578T
IGROV-1 = test system: IGROV-1
K562 = test system: K562
KM12 = test system: KM12
LOX IMVI = test system: LOX IMVI
M14 = test system: M14
MCF7 = test system: MCF7
MDA-MB-231 = test system: MDA-MB-231
MDA-MB-435 = test system: MDA-MB-435
MDA-N = test system: MDA-N
MOLT-4 = test system: MOLT-4
Malme-3M = test system: Malme-3M
NCI-H226 = test system: NCI-H226
NCI-H23 = test system: NCI-H23
NCI-H460 = test system: NCI-H460
NCI-H522 = test system: NCI-H522
NCI/ADR-RES = test system: NCI/ADR-RES
OVCAR-3 = test system: OVCAR-3
OVCAR-4 = test system: OVCAR-4
OVCAR-5 = test system: OVCAR-5
OVCAR-8 = test system: OVCAR-8
PC-3 = test system: PC-3
RPMI-8226 = test system: RPMI-8226
RXF 393 = test system: RXF 393
SF-268 = test system: SF-268
SF-295 = test system: SF-295
SF-539 = test system: SF-539
SK-MEL-28 = test system: SK-MEL-28
SK-MEL-2 = test system: SK-MEL-2
SK-MEL-5 = test system: SK-MEL-5
SK-OV-3 = test system: SK-OV-3
SN12C = test system: SN12C
SNB-19 = test system: SNB-19
SNB-75 = test system: SNB-75
SR = test system: SR
SW-620 = test system: SW-620
T47D = test system: T47D
TK-10 = test system: TK-10
U-251 = test system: U-251
UACC-257 = test system: UACC-257
UACC-62 = test system: UACC-62
UO-31 = test system: UO-31

`CC(Cc1ccc(O)c(O)c1)C(C)Cc1ccc(O)c(O)c1` (stereo not drawn) [NORDIHYDROGUAIARETIC ACID] was tested, and the GI50 (786-0) was 17.2 µM (inactive), the GI50 (A498) was 37 µM (inactive) and the GI50 (A549) was 33 µM (inactive). The GI50 (ACHN) was 16.1 µM (inactive), the GI50 (BT-549) was 13.9 µM (inactive) and the GI50 (CAKI-1) was 11.4 µM (inactive). For the same compound, the GI50 (CCRF-CEM) was 4.38 µM (inactive), the GI50 (COLO 205) was 18.7 µM (inactive) and the GI50 (DU-145) was 18.8 µM (inactive). For the same compound, the GI50 (EKVX) was 23.4 µM (inactive), the GI50 (HCC 2998) was 19.1 µM (inactive) and the GI50 (HCT-116) was 17.3 µM (inactive). The GI50 (HCT-15) was > 38.9 µM, the GI50 (HL-60) was 2.99 µM (inactive) and the GI50 (HOP-62) was 17.1 µM (inactive). For the same compound, the GI50 (HOP-92) was 3.14 µM (inactive), the GI50 (HT-29) was 22.9 µM (inactive) and the GI50 (Hs-578T) was 16.9 µM (inactive). The GI50 (IGROV-1) was 16.9 µM (inactive), the GI50 (K562) was 25.4 µM (inactive) and the GI50 (KM12) was 17.1 µM (inactive). For the same compound, the GI50 (LOX IMVI) was 17.4 µM (inactive), the GI50 (M14) was 16.5 µM (inactive) and the GI50 (MCF7) was 20.2 µM (inactive). For the same compound, the GI50 (MDA-MB-231) was > 39.1 µM (inactive), the GI50 (MDA-MB-435) was 13.5 µM (inactive) and the GI50 (MDA-N) was 10.2 µM (inactive). The GI50 (MOLT-4) was 8.22 µM (inactive), the GI50 (Malme-3M) was 15.9 µM (inactive) and the GI50 (NCI-H226) was 22.5 µM (inactive). The GI50 (NCI-H23) was 20.1 µM (inactive), the GI50 (NCI-H460) was 16.7 µM (inactive) and the GI50 (NCI-H522) was 2.03 µM (inactive). For the same compound, the GI50 (NCI/ADR-RES) was 22.8 µM (inactive), the GI50 (OVCAR-3) was 13.7 µM (inactive) and the GI50 (OVCAR-4) was 14.4 µM (inactive). The GI50 (OVCAR-5) was 21.2 µM (inactive), the GI50 (OVCAR-8) was 17.4 µM (inactive) and the GI50 (PC-3) was 21.9 µM (inactive). For the same compound, the GI50 (RPMI-8226) was 10.1 µM (inactive), the GI50 (RXF 393) was 13.6 µM (inactive) and the GI50 (SF-268) was 16.3 µM (inactive). The GI50 (SF-295) was 22.1 µM (inactive), the GI50 (SF-539) was 17.5 µM (inactive) and the GI50 (SK-MEL-28) was 16.2 µM (inactive). For the same compound, the GI50 (SK-MEL-2) was 18.5 µM (inactive), the GI50 (SK-MEL-5) was 16.8 µM (inactive) and the GI50 (SK-OV-3) was 21.5 µM (inactive). For the same compound, the GI50 (SN12C) was > 36.7 µM (inactive), the GI50 (SNB-19) was 19.5 µM (inactive) and the GI50 (SNB-75) was 19.8 µM (inactive). The GI50 (SR) was 9.79 µM (inactive), the GI50 (SW-620) was 18.9 µM (inactive) and the GI50 (T47D) was 18.4 µM (inactive). The GI50 (TK-10) was 23.6 µM (inactive), the GI50 (U-251) was 18.7 µM (inactive) and the GI50 (UACC-257) was 18.2 µM (inactive). For the same compound, the GI50 (UACC-62) was 16 µM (inactive) and the GI50 (UO-31) was 9.55 µM (inactive).

With `O=C1C(N2CCOCC2)=C(Cl)C(=O)c2ncccc21` the GI50 (786-0) was 1.84 µM (inactive), the GI50 (A498) was 8.32 µM (inactive) and the GI50 (A549) was > 10 µM (inactive). For the same compound, the GI50 (ACHN) was 1.85 µM (inactive), the GI50 (BT-549) was > 10 µM (inactive) and the GI50 (CAKI-1) was > 10 µM (inactive). For the same compound, the GI50 (CCRF-CEM) was 0.524 µM (active), the GI50 (COLO 205) was 2.24 µM (inactive) and the GI50 (DU-145) was > 6.73 µM (inactive). For the same compound, the GI50 (EKVX) was > 10 µM (inactive), the GI50 (HCC 2998) was > 6 µM (inactive) and the GI50 (HCT-116) was 1.71 µM (inactive). The GI50 (HCT-15) was 2.03 µM, the GI50 (HL-60) was 0.212 µM (active) and the GI50 (HOP-62) was > 10 µM (inactive). The GI50 (HOP-92) was 1.5 µM (inactive), the GI50 (HT-29) was > 7.89 µM (inactive) and the GI50 (Hs-578T) was 3.99 µM (inactive). The GI50 (IGROV-1) was > 8.53 µM (inactive), the GI50 (K562) was 1.39 µM (inactive) and the GI50 (KM12) was > 3.84 µM (inactive). The GI50 (LOX IMVI) was 1.94 µM (inactive), the GI50 (M14) was 2.37 µM (inactive) and the GI50 (MCF7) was 1.81 µM (inactive). For the same compound, the GI50 (MDA-MB-231) was 2.49 µM (inactive), the GI50 (MDA-MB-435) was 1.73 µM (inactive) and the GI50 (MDA-N) was 1.97 µM (inactive). For the same compound, the GI50 (MOLT-4) was 0.443 µM (active), the GI50 (Malme-3M) was 1.89 µM (inactive) and the GI50 (NCI-H226) was > 6.25 µM (inactive). The GI50 (NCI-H23) was 1.6 µM (inactive), the GI50 (NCI-H460) was > 6.79 µM (inactive) and the GI50 (NCI-H522) was 1.45 µM (inactive). The GI50 (NCI/ADR-RES) was 8.49 µM (inactive), the GI50 (OVCAR-3) was 1.81 µM (inactive) and the GI50 (OVCAR-4) was 1.56 µM (inactive). For the same compound, the GI50 (OVCAR-5) was > 10 µM (inactive), the GI50 (OVCAR-8) was 2.61 µM (inactive) and the GI50 (PC-3) was > 9.62 µM (inactive). The GI50 (RPMI-8226) was 1.56 µM (inactive), the GI50 (RXF 393) was 1.55 µM (inactive) and the GI50 (SF-268) was 2.9 µM (inactive). The GI50 (SF-295) was > 10 µM (inactive), the GI50 (SF-539) was 4.89 µM (inactive) and the GI50 (SK-MEL-28) was 2.2 µM (inactive). For the same compound, the GI50 (SK-MEL-2) was 1.87 µM (inactive), the GI50 (SK-MEL-5) was 1.82 µM (inactive) and the GI50 (SK-OV-3) was > 10 µM (inactive). The GI50 (SN12C) was 1.75 µM (inactive), the GI50 (SNB-19) was > 10 µM (inactive) and the GI50 (SNB-75) was > 10 µM (inactive). The GI50 (SR) was 0.778 µM (active), the GI50 (SW-620) was 1.87 µM (inactive) and the GI50 (T47D) was 1.99 µM (inactive). The GI50 (TK-10) was 1.98 µM (inactive), the GI50 (U-251) was 5.71 µM (inactive) and the GI50 (UACC-257) was 1.73 µM (inactive). The GI50 (UACC-62) was 2.33 µM (inactive) and the GI50 (UO-31) was 4.23 µM (inactive).

From ChEMBL document CHEMBL1201862, “PubChem BioAssay data set” (2004)
